Values joined by “and” are separate entries in the source; they are usually repeats but may differ in a detail not shown here. Equal entries are not always repeated.
How the values were obtained:
[1] = Phase I 3 + 3 dose escalation: DLT and MTD; details: human, in vivo
[2] = Safety: adverse events graded by CTCAE v4.0; format: in vivo, human; details: with paclitaxel and carboplatin

CC(C)(C(=O)NCC(F)(F)C(F)(F)F)C(=O)N[C@@H]1C(=O)Nc2ccccc2-c2ccccc21 [RO4929097]
4 (29) N (%): Hypertension, Grade 1 ([2]; treatment-related AE, N = 14)
1 (7%) N (%) and 1 (7) N (%): Fatigue, Grade 3 ([2]; treatment-related AE, N = 14) | Hypertension, Grade 3 ([2]; treatment-related AE, N = 14)
5 (36) N (%): Fatigue, Grade 1 ([2]; treatment-related AE, N = 14) | Fatigue, Grade 2 ([2]; treatment-related AE, N = 14) | Leukopenia, Grade 3 ([2]; treatment-related AE, N = 14)
10 (71) N (%): Constipation, All Grades ([2]; treatment-related AE, N = 14) | Constipation, Grade 1 ([2]; treatment-related AE, N = 14) | Dyspnea, All Grades ([2]; treatment-related AE, N = 14)
8 (57) N (%): Anemia, Grade 2 ([2]; treatment-related AE, N = 14) | Anorexia, Grade 1 ([2]; treatment-related AE, N = 14) | Epistaxis, All Grades ([2]; treatment-related AE, N = 14) | Headache, Grade 1 ([2]; treatment-related AE, N = 14) | Hypertension, All Grades ([2]; treatment-related AE, N = 14)
12 (86) N (%): Anemia, All Grades ([2]; treatment-related AE, N = 14)
6 (43) N (%): Alopecia, Grade 2 ([2]; treatment-related AE, N = 14) | Elevated aspartate aminotransferase, All Grades ([2]; treatment-related AE, N = 14) | Elevated aspartate aminotransferase, Grade 1 ([2]; treatment-related AE, N = 14)
7 (50) N (%): Dyspnea, Grade 1 ([2]; treatment-related AE, N = 14) | Epistaxis, Grade 1 ([2]; treatment-related AE, N = 14) | Hyperglycemia, All Grades ([2]; treatment-related AE, N = 14) | Hyperglycemia, Grade 1 ([2]; treatment-related AE, N = 14) | Leukopenia, Grade 2 ([2]; treatment-related AE, N = 14)
7%: SAE: depression ([2]; N = 1) | SAE: glucose intolerance ([2]; N = 1) | SAE: hyperglycemia ([2]; N = 1) | SAE: leukopenia ([2]; N = 1) | SAE: neutropenia ([2]; N = 1) | SAE: thrombocytopenia ([2]; N = 1) | SAE: wound dehiscence ([2]; N = 1) | SAE: wound infection ([2]; N = 1)
13 (93) N (%): Leukopenia, All Grades ([2]; treatment-related AE, N = 14)
21%: SAE: hypertension ([2]; N = 3)
1 (7) N (%): Anorexia, Grade 2 ([2]; treatment-related AE, N = 14) | Epistaxis, Grade 2 ([2]; treatment-related AE, N = 14) | Headache, Grade 2 ([2]; treatment-related AE, N = 14) | Leukopenia, Grade 1 ([2]; treatment-related AE, N = 14)
Eleven: Serious adverse events (SAEs) reported, number ([2]; duration of study)
9 (64) N (%): Alopecia, All Grades ([2]; treatment-related AE, N = 14) | Anorexia, All Grades ([2]; treatment-related AE, N = 14) | Headache, All Grades ([2]; treatment-related AE, N = 14)
0 (0) N (%): Alopecia, Grade 3 ([2]; treatment-related AE, N = 14) | Alopecia, Grade 4 ([2]; treatment-related AE, N = 14) | Anemia, Grade 1 ([2]; treatment-related AE, N = 14) | Anemia, Grade 4 ([2]; treatment-related AE, N = 14) | Anorexia, Grade 3 ([2]; treatment-related AE, N = 14) | Anorexia, Grade 4 ([2]; treatment-related AE, N = 14) | Constipation, Grade 2 ([2]; treatment-related AE, N = 14) | Constipation, Grade 3 ([2]; treatment-related AE, N = 14) | Constipation, Grade 4 ([2]; treatment-related AE, N = 14) | Dyspnea, Grade 3 ([2]; treatment-related AE, N = 14) | Dyspnea, Grade 4 ([2]; treatment-related AE, N = 14) | Elevated aspartate aminotransferase, Grade 2 ([2]; treatment-related AE, N = 14) | Elevated aspartate aminotransferase, Grade 3 ([2]; treatment-related AE, N = 14) | Elevated aspartate aminotransferase, Grade 4 ([2]; treatment-related AE, N = 14) | Epistaxis, Grade 3 ([2]; treatment-related AE, N = 14) | Epistaxis, Grade 4 ([2]; treatment-related AE, N = 14) | Fatigue, Grade 4 ([2]; treatment-related AE, N = 14) | Headache, Grade 3 ([2]; treatment-related AE, N = 14) | Headache, Grade 4 ([2]; treatment-related AE, N = 14) | Hyperglycemia, Grade 2 ([2]; treatment-related AE, N = 14) | Hyperglycemia, Grade 3 ([2]; treatment-related AE, N = 14) | Hyperglycemia, Grade 4 ([2]; treatment-related AE, N = 14) | Hypertension, Grade 4 ([2]; treatment-related AE, N = 14) | Leukopenia, Grade 4 ([2]; treatment-related AE, N = 14)
2: DLTs observed, all dose levels [1]
11 (79) N (%): Fatigue, All Grades ([2]; treatment-related AE, N = 14)
3 (21) N (%): Alopecia, Grade 1 ([2]; treatment-related AE, N = 14) | Dyspnea, Grade 2 ([2]; treatment-related AE, N = 14) | Hypertension, Grade 2 ([2]; treatment-related AE, N = 14)
4 (29%) N (%) and 4 (29) N (%): Anemia, Grade 3 ([2]; treatment-related AE, N = 14)

From publication PMC7955776 (Investigational new drugs, 2020)
